Laboratory results published in the NIST ThermoML archive (doi:10.1016/j.jct.2008.12.005).
± gives the expanded uncertainty stated by the source.

Test: activity coefficient (dimensionless); of the first substance listed, at infinite dilution; xn = mol fraction of the nth substance listed
Conditions: 101 kPa, Liquid, Chromatography, x1 = 0

Structure (SMILES)	activity coefficient (298.15 K)	activity coefficient (308.15 K)	activity coefficient (318.15 K)	activity coefficient (328.15 K)	activity coefficient (338.15 K)	activity coefficient (348.15 K)	activity coefficient (358.15 K)	activity coefficient (368.15 K)
C=CCCCC [hex-1-ene] + CC[S+](CC)CC.O=S(=O)([N-]S(=O)(=O)C(F)(F)F)C(F)(F)F	12.5 ± 0.9	11.8 ± 0.8	11.3 ± 0.8	10.6 ± 0.7	10.1 ± 0.7	9.69 ± 0.66	9.3 ± 0.63	8.94 ± 0.61
C=CCCC [1-pentene] + CC[S+](CC)CC.O=S(=O)([N-]S(=O)(=O)C(F)(F)F)C(F)(F)F	8.81 ± 0.6	8.41 ± 0.57	8.06 ± 0.55	7.72 ± 0.53	7.4 ± 0.5	7.17 ± 0.49	6.89 ± 0.47	6.69 ± 0.46
CCCCCCCCC [nonane] + CC[S+](CC)CC.O=S(=O)([N-]S(=O)(=O)C(F)(F)F)C(F)(F)F	87.2 ± 6	77.6 ± 5.3	68.6 ± 4.7	61.8 ± 4.2	55.5 ± 3.8	50.5 ± 3.5	46 ± 3.1	42.4 ± 2.9
CCCO [propan-1-ol] + CC[S+](CC)CC.O=S(=O)([N-]S(=O)(=O)C(F)(F)F)C(F)(F)F	–	2.49 ± 0.17	2.24 ± 0.15	2.04 ± 0.14	1.85 ± 0.12	1.7 ± 0.11	1.57 ± 0.1	1.46 ± 0.1
c1ccccc1 [benzene] + CC[S+](CC)CC.O=S(=O)([N-]S(=O)(=O)C(F)(F)F)C(F)(F)F	1.08 ± 0.07	1.1 ± 0.07	1.11 ± 0.07	1.12 ± 0.07	1.13 ± 0.07	1.13 ± 0.07	1.14 ± 0.07	1.15 ± 0.07
Cc1ccccc1C [1,2-dimethylbenzene] + CC[S+](CC)CC.O=S(=O)([N-]S(=O)(=O)C(F)(F)F)C(F)(F)F	–	2.05 ± 0.14	2.07 ± 0.14	2.09 ± 0.14	2.1 ± 0.14	2.12 ± 0.14	2.13 ± 0.14	2.15 ± 0.15
Cc1ccccc1 [toluene] + CC[S+](CC)CC.O=S(=O)([N-]S(=O)(=O)C(F)(F)F)C(F)(F)F	1.54 ± 0.1	1.56 ± 0.1	1.58 ± 0.1	1.6 ± 0.11	1.62 ± 0.11	1.63 ± 0.11	1.65 ± 0.11	1.66 ± 0.11
C#CCCCCC [1-heptyne] + CC[S+](CC)CC.O=S(=O)([N-]S(=O)(=O)C(F)(F)F)C(F)(F)F	5.34 ± 0.36	5.28 ± 0.36	5.21 ± 0.36	5.14 ± 0.35	5.08 ± 0.35	5.04 ± 0.34	4.98 ± 0.34	4.93 ± 0.34
CCCCCC [hexane] + CC[S+](CC)CC.O=S(=O)([N-]S(=O)(=O)C(F)(F)F)C(F)(F)F	28.6 ± 2	26.2 ± 1.8	24 ± 1.6	22.1 ± 1.5	20.7 ± 1.4	19.2 ± 1.3	18 ± 1.2	16.9 ± 1.2
c1ccsc1 [thiophene] + CC[S+](CC)CC.O=S(=O)([N-]S(=O)(=O)C(F)(F)F)C(F)(F)F	0.926 ± 0.059	0.935 ± 0.059	0.943 ± 0.059	0.951 ± 0.06	0.958 ± 0.06	0.965 ± 0.061	0.971 ± 0.061	0.977 ± 0.061
CCO [ethanol] + CC[S+](CC)CC.O=S(=O)([N-]S(=O)(=O)C(F)(F)F)C(F)(F)F	2.15 ± 0.15	1.95 ± 0.13	1.77 ± 0.12	1.61 ± 0.11	1.48 ± 0.1	1.36 ± 0.09	1.27 ± 0.08	1.18 ± 0.08
C1CCOC1 [tetrahydrofuran] + CC[S+](CC)CC.O=S(=O)([N-]S(=O)(=O)C(F)(F)F)C(F)(F)F	0.788 ± 0.051	0.803 ± 0.052	0.82 ± 0.053	0.834 ± 0.054	0.846 ± 0.054	0.859 ± 0.055	0.872 ± 0.056	0.885 ± 0.056
CCCCC [pentane] + CC[S+](CC)CC.O=S(=O)([N-]S(=O)(=O)C(F)(F)F)C(F)(F)F	21.6 ± 1.5	19.9 ± 1.4	18.3 ± 1.3	16.8 ± 1.1	15.6 ± 1.1	14.6 ± 1	13.5 ± 0.9	12.7 ± 0.9
C#CCCC [1-pentyne] + CC[S+](CC)CC.O=S(=O)([N-]S(=O)(=O)C(F)(F)F)C(F)(F)F	2.52 ± 0.17	2.52 ± 0.17	2.53 ± 0.17	2.54 ± 0.17	2.54 ± 0.17	2.55 ± 0.17	2.55 ± 0.17	2.55 ± 0.17
C1CCCC1 [cyclopentane] + CC[S+](CC)CC.O=S(=O)([N-]S(=O)(=O)C(F)(F)F)C(F)(F)F	10.8 ± 0.7	10.1 ± 0.7	9.31 ± 0.64	8.72 ± 0.59	8.17 ± 0.56	7.7 ± 0.53	7.29 ± 0.5	6.94 ± 0.47
CCCCCCCC [octane] + CC[S+](CC)CC.O=S(=O)([N-]S(=O)(=O)C(F)(F)F)C(F)(F)F	59.6 ± 4.1	53.3 ± 3.7	47.9 ± 3.3	43.6 ± 3	39.6 ± 2.7	36.3 ± 2.5	33.5 ± 2.3	30.8 ± 2.1
C#CCCCC [1-hexyne] + CC[S+](CC)CC.O=S(=O)([N-]S(=O)(=O)C(F)(F)F)C(F)(F)F	3.63 ± 0.25	3.62 ± 0.25	3.6 ± 0.25	3.58 ± 0.24	3.57 ± 0.24	3.56 ± 0.24	3.54 ± 0.24	3.53 ± 0.24
Cc1cccc(C)c1 [1,3-dimethylbenzene] + CC[S+](CC)CC.O=S(=O)([N-]S(=O)(=O)C(F)(F)F)C(F)(F)F	–	2.29 ± 0.16	2.31 ± 0.16	2.33 ± 0.16	2.34 ± 0.16	2.36 ± 0.16	2.38 ± 0.16	2.39 ± 0.16
C1CCCCCC1 [cycloheptane] + CC[S+](CC)CC.O=S(=O)([N-]S(=O)(=O)C(F)(F)F)C(F)(F)F	21.7 ± 1.5	19.8 ± 1.4	18 ± 1.2	16.5 ± 1.1	15.2 ± 1	14.1 ± 1	13.1 ± 0.9	12.2 ± 0.8
CO [methanol] + CC[S+](CC)CC.O=S(=O)([N-]S(=O)(=O)C(F)(F)F)C(F)(F)F	1.62 ± 0.11	1.48 ± 0.1	1.35 ± 0.09	1.25 ± 0.08	1.15 ± 0.07	1.07 ± 0.07	1 ± 0.06	0.935 ± 0.059
